Measured values taken from PubChem BioAssay AID1963871 (Molecular Pharmacology Branch, DTP, NCI, 2024).
pIC50: −log10 of the molar value.

Tested on: KRAS-mutant PDC multicell tumor spheroid viability
Test: Anticancer human tumor 521955-158-R2-J5-PDC patient-derived pancreatic carcinoma cell line growth inhibition [KRAS2]
Conditions: for pIC50: curve of first compound; for viability, T/C: stronger effect = lower value
Text: Multicellular complex tumor spheroid response to RAS pathway inhibitors in combination with a targeted agents in patient-derived cell lines with oncogenic KRAS variants from multiple cancer types
A high-throughput screen of multi-cell type tumor spheroids was designed to identify active combinations of targeted small molecules and KRAS pathway inhibitors. Complex spheroids include a stromal component modeled by human endothelial cells (HUVEC) and fibroblasts modeled by human mesenchymal stem cells (MSCs). The concentration ranges selected for each drug and investigational agent were based upon clinically achievable concentrations if the clinical Cmax of the agent was known.
Compounds. The drugs and investigational agents: BI-3406 (NSC825286), BAY-293 (NSC824723), batoprotafib (TNO155; NSC825523), sotorasib (AMG 510; NSC818433), MRTX1257 (NSC819558), elimusertib (BAY 1895344; NSC800525), molibresib (GSK525762; NSC774829), temuterkib (LY3214996; NSC803410), venetoclax (NSC766270), alisertib (NSC759677), olaparib (NSC753686), talazoparib (NSC767125), erdafitinib (NSC781556), ipatasertib (NSC767898), cabozantinib (NSC761068), nintedanib (NSC756659), abemaciclib (NSC768073), docetaxel (NSC628503), trametinib (NSC758246), and sapanisertib (NSC764658) were obtained from the National Cancer Institute (NCI) Developmental Therapeutics Program Chemical Repository. The FDA-approved anticancer drug set is available from the Developmental Therapeutics Program. […] The stock solutions were prepared in dimethyl sulfoxide (DMSO, Sigma-Aldrich, St. Louis, MO, cat. D2650) at 800-fold the tested concentration and stored at -70 degrees C prior to their use. All drugs and investigational agents were tested over a range starting from a high concentration at or near the clinical Cmax and decreasing in half-log increments. If the clinical Cmax for an agent had not been determined, the highest concentration tested was 10 microM.
Cell Culture. All cells were maintained in an incubator at 37 degrees C and 5% CO2 with 95% humidity. The PDC lines were cultured according to standard operating procedures established by the NCI PDMR (https://pdmr.cancer.gov/sops/default.htm). Briefly, all PDCs were thawed and cultured in Matrigel-coated flasks prepared with a working solution of 1X Ham's F-12 nutrient mix, without supplementation (Invitrogen, Waltham, MA, cat. 11765054), 100 U/mL penicillin-streptomycin (Invitrogen, cat. 15140122), and 2.5% Matrigel (Corning Inc., Corning, NY, cat. 354248) for the first three passages. All PDCs were cultured in complete DMEM/F-12 media containing advanced DMEM/F-12 (Invitrogen, cat. 12634028), 4.9% defined fetal bovine serum, heat inactivated (HyClone Laboratories Inc., Logan, UT, cat. SH30070.03HI), 389 ng/mL hydrocortisone (Sigma-Aldrich, cat. H4001), 9.7 ng/mL human EGF recombinant protein (Invitrogen, cat. PHG0313), 23.4 microg/mL adenine (Sigma-Aldrich, cat. A2786), 97.3 U/mL penicillin-streptomycin (Invitrogen, cat. 15140122), 1.9 mM L-glutamine (Invitrogen, cat. 25030081), and 9.7 microM Y-27632 dihydrochloride (Tocris Bioscience, Bristol, United Kingdom, cat. 1254). The PDCs were cultured in complete DMEM/F12 media without 9.7 microM Y-27632 dihydrochloride for at least two passages prior to the screen. The established cell line HOP-62 was cultured in RPMI 1640 medium, HEPES (Invitrogen, cat. 22400105) with 10% defined fetal bovine serum (HyClone Laboratories Inc., cat. SH30070.03) and 2 mM L-glutamine (Invitrogen, cat. 25030081). The pooled donor HUVEC were cultured in endothelial cell growth medium 2 (PromoCell, Heidelberg, Germany, cat. C-22011) and the hMSC were cultured in mesenchymal stem cell growth medium 2 (PromoCell, cat. C-28009). For all experiments, HUVEC and hMSC were used at passages </=5, while the malignant cell lines were used at passages </=15. […]

[1] = second compound 0.1 µM, first compound 0.0316 µM
[2] = second compound 0.1 µM, first compound 0.1 µM
[3] = second compound 0.1 µM, first compound 0.316 µM
[4] = second compound 0.1 µM, first compound 1 µM
[5] = second compound 0.316 µM, first compound 0.0316 µM
[6] = second compound 0.316 µM, first compound 0.1 µM
[7] = second compound 0.316 µM, first compound 0.316 µM
[8] = second compound 0.316 µM, first compound 1 µM
[9] = second compound 1 µM, first compound 0.0316 µM
[10] = second compound 1 µM, first compound 0.1 µM
[11] = second compound 1 µM, first compound 0.316 µM
[12] = second compound 1 µM, first compound 1 µM
[13] = second compound 3.16 µM, first compound 0.0316 µM
[14] = second compound 3.16 µM, first compound 0.1 µM
[15] = second compound 3.16 µM, first compound 0.316 µM
[16] = second compound 3.16 µM, first compound 1 µM
[17] = second compound 10 µM, first compound 0.0316 µM
[18] = second compound 10 µM, first compound 0.1 µM
[19] = second compound 10 µM, first compound 0.316 µM
[20] = second compound 10 µM, first compound 1 µM
[21] = second compound 0.1 µM, first compound 0.00316 µM
[22] = second compound 0.1 µM, first compound 0.01 µM
[23] = second compound 0.316 µM, first compound 0.00316 µM
[24] = second compound 0.316 µM, first compound 0.01 µM
[25] = second compound 1 µM, first compound 0.00316 µM
[26] = second compound 1 µM, first compound 0.01 µM
[27] = second compound 3.16 µM, first compound 0.00316 µM
[28] = second compound 3.16 µM, first compound 0.01 µM
[29] = second compound 10 µM, first compound 0.00316 µM
[30] = second compound 10 µM, first compound 0.01 µM
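Further: viability read after seven days of drug exposure.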

Structure (SMILES) | pIC50 (second compound 0.1 µM) | pIC50 (second compound 0.316 µM) | pIC50 (second compound 1 µM) | pIC50 (second compound 3.16 µM) | pIC50 (second compound 10 µM) | viability, T/C [1] [%] | viability, T/C [2] [%] | viability, T/C [3] [%] | viability, T/C [4] [%] | viability, T/C [5] [%] | viability, T/C [6] [%] | viability, T/C [7] [%] | viability, T/C [8] [%] | viability, T/C [9] [%] | viability, T/C [10] [%] | viability, T/C [11] [%] | viability, T/C [13] [%] | viability, T/C [14] [%] | viability, T/C [17] [%] | viability, T/C [18] [%] | further results
CC(C)NCC(C(=O)N1CCN(c2ncnc3c2C(C)CC3O)CC1)c1ccc(Cl)cc1 (centres undefined) + C=CC(=O)N1CCN(c2nc(=O)n(-c3c(C)ccnc3C(C)C)c3nc(-c4c(O)cccc4F)c(F)cc23)C(C)C1 | < 5.00 | < 5.00 | < 5.00 | 6.53 | 6.87 | 102 | 105 | 77.7 | 78 | 116 | 100 | 74.4 | 64.4 | 106 | 94.9 | 64.1 | 94.8 | 82.8 | 69.5 | 56.2 | viability, T/C (second compound 0.1 µM, first compound 3.16 µM): 76.5%; viability, T/C (second compound 0.1 µM, first compound 10 µM): 67%; viability, T/C (second compound 0.316 µM, first compound 3.16 µM): 65.3%; viability, T/C (second compound 0.316 µM, first compound 10 µM): 58.6%; viability, T/C [12]: 54.5%; viability, T/C (second compound 1 µM, first compound 3.16 µM): 58.2%; viability, T/C (second compound 1 µM, first compound 10 µM): 53.2%; viability, T/C [15]: 46.5%; viability, T/C [16]: 43.2%; viability, T/C (second compound 3.16 µM, first compound 10 µM): 31%; viability, T/C [19]: 32.1%; viability, T/C [20]: 19.7%; viability, T/C (second compound 10 µM, first compound 3.16 µM): 19.2%; viability, T/C (second compound 10 µM, first compound 10 µM): 13.2%
CCN1CCN(Cc2ccc(Nc3ncc(F)c(-c4cc(F)c5nc(C)n(C(C)C)c5c4)n3)nc2)CC1 + C=CC(=O)N1CCN(c2nc(=O)n(-c3c(C)ccnc3C(C)C)c3nc(-c4c(O)cccc4F)c(F)cc23)C(C)C1 | < 6.00 | < 6.00 | < 6.00 | < 6.00 | < 6.00 | 110 | 100 | 122 | 97.2 | 91.1 | 101 | 117 | 109 | 94.5 | 95.5 | 113 | 91.8 | 80.5 | 89.4 | 74.6 | viability, T/C [21]: 113%; viability, T/C [22]: 100%; viability, T/C [23]: 114%; viability, T/C [24]: 108%; viability, T/C [25]: 112%; viability, T/C [26]: 108%; viability, T/C [12]: 96.7%; viability, T/C [27]: 89.2%; viability, T/C [28]: 99.4%; viability, T/C [15]: 88.4%; viability, T/C [16]: 88.8%; viability, T/C [29]: 81%; viability, T/C [30]: 88.3%; viability, T/C [19]: 66.7%; viability, T/C [20]: 50.7%
Cn1ncnc1[C@H]1c2n[nH]c(=O)c3cc(F)cc(c23)N[C@@H]1c1ccc(F)cc1 + C=CC(=O)N1CCN(c2nc(=O)n(-c3c(C)ccnc3C(C)C)c3nc(-c4c(O)cccc4F)c(F)cc23)C(C)C1 | < 7.00 | < 7.00 | < 7.00 | < 7.00 | < 7.00 | 87.2 | 79.3 |  |  | 82.6 | 86.3 |  |  | 83.3 | 68.2 |  | 66.4 | 61.9 | 59.8 | 57.7 | viability, T/C (second compound 0.1 µM, first compound 0.000316 µM): 104%; viability, T/C (second compound 0.1 µM, first compound 0.001 µM): 106%; viability, T/C [21]: 89.6%; viability, T/C [22]: 96.3%; viability, T/C (second compound 0.316 µM, first compound 0.000316 µM): 109%; viability, T/C (second compound 0.316 µM, first compound 0.001 µM): 108%; viability, T/C [23]: 103%; viability, T/C [24]: 80.6%; viability, T/C (second compound 1 µM, first compound 0.000316 µM): 103%; viability, T/C (second compound 1 µM, first compound 0.001 µM): 107%; viability, T/C [25]: 96.6%; viability, T/C [26]: 85.9%; viability, T/C (second compound 3.16 µM, first compound 0.000316 µM): 95.5%; viability, T/C (second compound 3.16 µM, first compound 0.001 µM): 89.8%; viability, T/C [27]: 97.7%; viability, T/C [28]: 75.2%; viability, T/C (second compound 10 µM, first compound 0.000316 µM): 63.9%; viability, T/C (second compound 10 µM, first compound 0.001 µM): 67.8%; viability, T/C [29]: 60.9%; viability, T/C [30]: 59.6%
